In PubChem BioAssay (NCI):
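Method: 48-hour compound exposure of cells in 96-well plates, five concentrations, linear interpolation of endpoints. Definition used: TGI = concentration required for complete inhibition of growth.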

Key:
Assay in all cases: inhibition of tumour cell growth, NCI panel, 48 h
HOP-62 NSCLC = test system: HOP-62 NSCLC
PC-3 prostate = test system: PC-3 prostate
MDA-N = test system: MDA-N
HL-60(TB) leukemia = test system: HL-60(TB) leukemia
SN12C renal = test system: SN12C renal
SNB-19 CNS = test system: SNB-19 CNS
IGROV1 ovarian = test system: IGROV1 ovarian
U251 CNS = test system: U251 CNS
OVCAR-5 ovarian = test system: OVCAR-5 ovarian
SK-MEL-5 melanoma = test system: SK-MEL-5 melanoma

| Compound | TGI (HOP-62 NSCLC) [µM] | TGI (PC-3 prostate) [µM] | TGI (MDA-N) [µM] | TGI (HL-60(TB) leukemia) [µM] | TGI (SN12C renal) [µM] | TGI (SNB-19 CNS) [µM] | TGI (IGROV1 ovarian) [µM] | TGI (U251 CNS) [µM] | TGI (OVCAR-5 ovarian) [µM] | TGI (SK-MEL-5 melanoma) [µM] |
| --- | --- | --- | --- | --- | --- | --- | --- | --- | --- | --- |
| CC(C)(C)OC(=O)NC1CCCC1C(O)(C1=CCCC1)C1=CCCC1 (stereo not given) | > 100 | > 100 | > 100 | > 100 | > 100 | > 100 | > 100 | > 100 | > 100 | > 100 |
| N#Cc1nc(C(F)(F)F)oc1N | > 100 | > 100 | > 100 | > 100 | > 100 | > 100 | > 100 | > 100 | > 100 | > 100 |
| COC(=O)c1ccc(CCC2=CC(=O)C(Br)=CC2=O)cc1 | 31.6 | 30.9 | 31.4 | 5.2 | 32.5 | 29.2 | 28.7 | 32.5 | 33.6 | 24.6 |
| CCSCC(=O)N1CCc2c([nH]c3ccccc23)C1=O | > 100 | > 100 | > 100 | > 100 | > 100 | > 100 | > 100 | > 100 | > 100 | > 100 |
| CC(=O)Nc1ccc(N2C(=O)CS(=O)(=O)C2c2cccc(Oc3ccccc3)c2)cc1 (stereo not given) | 38.9 | 42.8 | 32.5 | 84.8 | 29.6 | 36.2 | – | 32.6 | 37.2 | 28.7 |
| COc1cc2c(cc1OC)C1=Cc3ccc(OC)c(OC)c3C(C#N)N1CC2 (stereo not given) | > 100 | > 100 | > 100 | > 100 | > 100 | > 100 | – | > 100 | > 100 | 38.6 |
| NC(CCl)=NC1CN2CCC1CC2 (stereo not given) | > 100 | > 100 | > 100 | > 100 | > 100 | > 100 | > 100 | > 100 | > 100 | > 100 |
| CC1(C)CC(=O)C2=C(C1)NC(SCC(=O)O)=C(C#N)C2c1ccc(Br)cc1 (stereo not given) | > 100 | > 100 | > 100 | > 100 | – | > 100 | > 100 | > 100 | > 100 | > 100 |
| OCc1c2c(cc3c1CC1(C3)Cc3cc4c(c(CO)c3C1)CCC4)CCC2 | 29.6 | 39.9 | 29.2 | 18.4 | 32.4 | – | 30.2 | 29.4 | 34.6 | 17.9 |
| O=c1[nH]nc(Cc2ccccc2)n1/N=C/c1ccc([N+](=O)[O-])o1 | 22 | 20.9 | 4.83 | > 100 | 46 | 38.1 | 15.7 | 16.3 | 26.1 | – |
| [N-]=[N+]=NC1=NNC2(C(=O)N1)c1ccccc1-c1ccccc12 | > 100 | > 100 | > 100 | > 100 | > 100 | > 100 | > 100 | > 100 | > 100 | > 100 |
| OCCN1CN(c2nc(N3CN(CCO)C3)nc(N3CN(CCO)C3)n2)C1 | 39.2 | 49.8 | 32.3 | 40.1 | 39.5 | 49.6 | 85.6 | 53 | 60.2 | 33.4 |
| O=C(O)C(F)(F)C(F)(F)C(F)(F)C(F)(F)C(=O)O | > 100 | > 100 | > 100 | > 100 | > 100 | > 100 | > 100 | > 100 | > 100 | > 100 |
| Cc1c(C)c2c(c(N)c1C#N)C(=O)N(OS(=O)(=O)c1ccccc1)C2=O | – | > 100 | 80.8 | > 100 | 51.4 | > 100 | 37.7 | 49.5 | > 100 | > 100 |
| O=c1[nH]c2nccnc2c2c([N+](=O)[O-])cccc12 | > 100 | > 100 | > 100 | > 100 | > 100 | > 100 | > 100 | > 100 | > 100 | > 100 |
| COc1ccc(C2c3cc4c(cc3OC(NNC(N)=O)C2C)OCO4)cc1 (stereo not given) | > 54.4 | 53.8 | 6.86 | 5.22 | > 100 | > 100 | > 100 | 35.2 | > 100 | > 63.2 |
| COC(=O)c1c(O)ccc2c1c1c(n2Cc2ccc(OC)cc2)C(=O)c2ccccc2C1=O | 33.2 | 21.1 | 32.7 | 12.1 | 7.35 | > 100 | 21.4 | 23.4 | 51.7 | – |
| O=C1CSC(c2cccc(Cl)c2)N1c1c(O)c(Cl)cc(Br)c1Cl (stereo not given) | > 100 | > 100 | 34.1 | 51.8 | > 100 | > 100 | – | 72.3 | > 100 | > 100 |
| c1ccc2c(c1)CCN(C1=NCCO1)C2 | > 10 | > 10 | > 10 | > 10 | > 10 | > 10 | > 10 | > 10 | > 10 | > 10 |
| CN(C)c1ccc(/C=N/n2c(-c3ccccc3)nc3ccccc3c2=O)cc1 | > 100 | > 100 | > 100 | > 100 | > 100 | > 100 | > 100 | > 100 | > 100 | > 100 |
| O=c1[nH]nc(-c2ccc([N+](=O)[O-])cc2)n1/N=C/c1ccc([N+](=O)[O-])cc1 | > 100 | > 100 | > 100 | > 100 | > 100 | > 100 | > 100 | > 100 | > 100 | > 100 |
| C/C=C1\CN2CCC34c5ccccc5N(C)C35OCC4(C(=O)OC)C1CC25 (stereo not given) | > 100 | > 100 | > 100 | 78.3 | > 100 | > 100 | > 100 | > 100 | > 100 | 33.5 |

| Compound | TGI (HOP-62 NSCLC) [µM] | TGI (PC-3 prostate) [µM] | TGI (MDA-N) [µM] | TGI (HL-60(TB) leukemia) [µM] | TGI (SN12C renal) [µM] | TGI (SNB-19 CNS) [µM] | TGI (IGROV1 ovarian) [µM] | TGI (U251 CNS) [µM] | TGI (OVCAR-5 ovarian) [µM] | TGI (SK-MEL-5 melanoma) [µM] |
| --- | --- | --- | --- | --- | --- | --- | --- | --- | --- | --- |
| O=c1c2ncn(C3CCCCO3)c2n(-c2ccccc2)c(=S)n1-c1ccccc1 (stereo not given) | 29.9 | > 100 | > 100 | > 100 | > 100 | > 69.4 | 69.2 | > 74.2 | > 76.5 | > 100 |
| CC(=O)[C@H]1CC[C@H]2[C@@H]3CCC4=CC(=O)CC[C@]4(C)[C@H]3CC[C@]12C | 45.4 | 39.3 | 35.9 | 87.1 | 41.1 | > 100 | 71.4 | 34.1 | 50.9 | 24.8 |
| NNC(=Nc1ccccc1)SCc1ccccc1 | > 100 | > 100 | > 100 | > 100 | > 100 | > 100 | > 100 | > 100 | > 100 | > 100 |
| Nc1nc2cc(CNc3ccc(C(=O)O)cc3)ccc2nc1-c1ccccc1 | > 100 | > 100 | > 100 | > 100 | > 100 | > 100 | > 100 | > 100 | > 100 | > 100 |
| CC(C)=NNc1cnnc2ccc([N+](=O)[O-])cc12 | – | > 100 | > 100 | 43.2 | > 100 | > 100 | > 100 | > 100 | > 100 | > 100 |
| O=C(Nc1ccccc1)c1cc(S(=O)(=O)Nc2n[nH]c(=O)[nH]2)c(SSc2cc(Cl)c(C(=O)Nc3ccccc3)cc2S(=O)(=O)Nc2n[nH]c(=O)[nH]2)cc1Cl | > 100 | > 100 | > 100 | > 100 | > 100 | > 100 | > 100 | > 100 | > 100 | > 100 |
| CCOP(=O)(CC1CC(O)(CNc2cc(Cl)nc(N)n2)C1)OCC (stereo not given) | > 100 | > 100 | > 100 | > 100 | > 100 | – | > 100 | > 100 | > 100 | > 100 |
| CSc1nc2c(c(=O)n1C)N=C(c1ccc(Cl)cc1)CC(c1ccccc1)N2 (stereo not given) | 71.4 | > 100 | 30.3 | 62.4 | 39.4 | > 100 | 55.4 | > 100 | > 100 | 33.7 |
| Cc1ccc2ccc(=O)oc2c1 | > 100 | > 100 | > 100 | > 100 | > 100 | – | > 100 | > 100 | > 100 | > 100 |
| CC1=NC2(CCCCC2)N(Cl)C(=O)C1SC#N (stereo not given) | 47.8 | 32.1 | 32.2 | > 100 | 36.5 | 49.9 | 34.4 | 37.4 | 38.6 | 39.8 |
| COc1ccc(-c2cc(C3CC3)nc(SCC(=O)O)c2C#N)cc1 | > 100 | > 100 | > 100 | > 100 | > 100 | > 100 | > 100 | > 100 | > 100 | > 100 |
| CCCN=C1Nc2ccccc2[C@@H]2N(C)c3ccccc3C(C)C[C@]12C (stereo not given in full) | 32.1 | 40.8 | 38.7 | 56.1 | > 100 | 44.8 | 43.5 | – | 46.8 | 29.2 |
| COC(=O)c1c(C)ccc2c(O)c3c(cc12)C(=O)c1c2c(cc(O)c1C3=O)C1(C)OC(C)(O2)C(O)C(N(C)C)C1O (stereo not given) | 13.4 | 4.89 | 2.58 | 15.4 | 12.1 | 7.22 | – | 1.6 | 7.19 | 17.3 |
| COC(=O)C1=COC(C)C2C[n+]3ccc4c([nH]c5ccccc54)c3CC12 (stereo not given) | > 100 | > 100 | > 100 | > 100 | > 100 | > 100 | > 100 | > 100 | > 100 | > 100 |
| O=C(CCCC1Cc2ccccc2C1=O)c1ccccc1 (stereo not given) | > 100 | > 100 | > 100 | 77.4 | > 100 | > 100 | > 100 | > 100 | > 100 | > 100 |
| O=C1OC(C2Cc3ccccc3C2=O)c2ccccc21 (stereo not given) | > 100 | > 100 | > 100 | > 100 | > 100 | > 100 | > 100 | > 100 | > 100 | > 100 |
| Cc1c(C#N)c2nnn(-c3ccc([N+](=O)[O-])cc3)c(=O)n2c1-c1ccccc1 | 19.8 | 14.7 | 31.3 | 60.3 | 24.9 | 36.7 | 33.6 | 14.5 | 40.1 | 25.2 |
| Cc1ccc(S(=O)(=O)Nc2nc3ccccc3c(=O)n2C2CCCCC2)cc1 | > 100 | > 100 | > 100 | > 100 | > 100 | > 100 | > 100 | > 100 | > 100 | > 100 |
| c1ccc2c(c1)nc1n2CCNC1 | > 100 | > 100 | > 100 | > 100 | > 100 | > 100 | > 100 | > 100 | > 100 | > 100 |
| C/C=C1/CN2[C@@H](C3=C[C@@H]4[C@@H]5N(C3=O)c3ccccc3[C@@]53CCN5C/C(=C/C)[C@@H]4C[C@H]53)C[C@@]34c5ccccc5N5C(=O)CC=C([C@H]1C[C@H]23)[C@H]54 | 17.5 | 9.72 | 10.4 | 2.2 | 9.95 | 14.7 | – | 7.67 | 15 | 8.93 |
| c1nncn1C12C3C4C5C3C1C5C42 (stereo not given) | > 100 | > 100 | > 100 | > 100 | > 100 | > 100 | > 100 | > 100 | > 100 | > 100 |
| Cc1cccc(/C=N/NC(=S)N2CCCCCC2)n1 | 1.01 | > 72.5 | > 45.9 | 0.241 | 0.805 | > 100 | 1.55 | – | > 72.2 | 2 |
